Results published in ChEMBL document CHEMBL4739716, “Gpr139 receptor modulators” (2020).
pEC50: −log10 of the molar value.

Experiments:
[1] = biological target: T1, Probable G-protein coupled receptor 139 (Homo sapiens, UniProt Q6DWJ6); test: Agonist activity at human GPR139 expressed in CHO-K1 cells assessed as increase in calcium flux by calcium 5 dye based FLIPR assay; format: functional, cell-based
T1 sequence (Q6DWJ6 whole entry): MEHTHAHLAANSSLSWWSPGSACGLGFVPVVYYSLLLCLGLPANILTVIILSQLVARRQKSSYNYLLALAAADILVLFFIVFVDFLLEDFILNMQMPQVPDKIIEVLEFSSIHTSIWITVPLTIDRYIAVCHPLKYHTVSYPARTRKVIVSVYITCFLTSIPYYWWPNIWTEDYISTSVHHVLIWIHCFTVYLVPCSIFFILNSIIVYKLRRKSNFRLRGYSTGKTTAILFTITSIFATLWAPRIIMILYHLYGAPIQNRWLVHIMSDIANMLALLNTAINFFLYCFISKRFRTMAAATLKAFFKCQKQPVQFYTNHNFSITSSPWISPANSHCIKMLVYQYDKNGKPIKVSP

[2] = biological target: T2, Probable G-protein coupled receptor 139 (Homo sapiens) (UniProt Q6DWJ6); test: Agonist activity at human GPR139 expressed in CHO-K1 cells assessed as increase in calcium flux by calcium 5 dye based FLIPR assay relative to JNJ63533054; format: functional, cell-based; conditions: filed as agonist
T2 sequence (whole entry): T1 sequence (Q6DWJ6 whole entry)

[3] = biological target: T3, Probable G-protein coupled receptor 139 (Rattus norvegicus, UniProt P0C0W8); test: Agonist activity at rat GPR139 expressed in CHO-K1 cells assessed as increase in calcium flux by calcium 5 dye based FLIPR assay; format: cell-based
T3 sequence (P0C0W8 whole entry): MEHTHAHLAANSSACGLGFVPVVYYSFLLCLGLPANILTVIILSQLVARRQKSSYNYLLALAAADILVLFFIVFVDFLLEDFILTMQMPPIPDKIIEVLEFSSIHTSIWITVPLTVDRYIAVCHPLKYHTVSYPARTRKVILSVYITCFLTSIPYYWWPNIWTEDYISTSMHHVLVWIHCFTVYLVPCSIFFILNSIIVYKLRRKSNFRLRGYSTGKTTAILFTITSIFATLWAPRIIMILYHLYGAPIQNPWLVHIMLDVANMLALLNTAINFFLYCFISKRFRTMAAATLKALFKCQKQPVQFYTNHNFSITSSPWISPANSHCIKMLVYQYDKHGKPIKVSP

[4] = biological target: T4, Probable G-protein coupled receptor 139 (Rattus norvegicus) (UniProt P0C0W8); test: Agonist activity at rat GPR139 expressed in CHO-K1 cells assessed as increase in calcium flux by calcium 5 dye based FLIPR assay relative to JNJ63533054; format: cell-based
T4 sequence (whole entry): T3 sequence (P0C0W8 whole entry)

[5] = biological target: T1, Probable G-protein coupled receptor 139; test: Agonist activity at human GPR139 expressed in CHO-K1 cells assessed as induction of beta-arrestin 2 recruitment incubated for 90 mins by PathHunter assay; format: cell-based
[6] = biological target: T2, Probable G-protein coupled receptor 139 (Homo sapiens); test: Agonist activity at human GPR139 expressed in CHO-K1 cells assessed as induction of beta-arrestin 2 recruitment incubated for 90 mins by PathHunter assay relative to JNJ63533054; format: cell-based

| Compound | pEC50 [1] | Emax [2] [%] | pEC50 ([3]; cho-k1) | Emax ([4]; filed as agonist) [%] | pEC50 ([5]; cho-k1) | Emax ([6]; filed as agonist) [%] | pEC50 ([1]; cho-k1) | pEC50 [5] | Emax [6] [%] | pEC50 [3] | Emax [4] [%] |
| --- | --- | --- | --- | --- | --- | --- | --- | --- | --- | --- | --- |
| CNc1ccnn2c(=O)n(CC(=O)N[C@@H](C)c3ccc(OC(F)(F)F)cc3)nc12 | > 9.00 | > 80 | 9.00 | 50 | 8.00 | 50 | – | – | – | – | – |
| CC[C@H](NC(=O)Cn1nc2cccnn2c1=O)c1ccc(Cl)c(F)c1 | – | > 80 | 9.00 | > 80 | – | – | 9.00 | ≤ 7.00 | 25 | – | – |
| Cc1ccc([C@H](C)NC(=O)Cn2nc3c(C)ccnn3c2=O)cc1F | > 9.00 | > 80 | 9.00 | > 80 | 8.00 | > 80 | – | – | – | – | – |
| COc1nc2nn(CC(=O)N[C@@H](C)c3ccc(Cl)c(F)c3)c(=O)n2cc1C | > 9.00 | > 80 | – | > 80 | – | > 80 | – | > 9.00 | – | > 9.00 | – |
| O=C(Cn1nc2cccnn2c1=O)NC1(c2ccc(Cl)cc2)CC1 | ≤ 7.00 | 50 | – | 50 | – | – | – | ≤ 7.00 | < 25 | ≤ 7.00 | – |
| C[C@H](NC(=O)Cn1nc2ncc(Cl)cn2c1=O)c1ccc(Cl)c(F)c1 | > 9.00 | > 80 | 9.00 | > 80 | – | 50 | – | ≤ 7.00 | – | – | – |
| C[C@H](NC(=O)Cn1nc2cc(N3CCOCC3)cnn2c1=O)c1ccc(Cl)c(F)c1 | – | > 80 | 9.00 | > 80 | – | – | 9.00 | ≤ 7.00 | 25 | – | – |
| C[C@H](NC(=O)Cn1nc2cccc(N3CCCCC3)n2c1=O)c1ccc(OC(F)(F)F)cc1 | > 9.00 | 50 | 9.00 | 50 | – | 50 | – | > 9.00 | – | – | – |
| Cc1cnn2c(=O)n(CC(=O)N[C@@H](C)c3ccc(Cl)c(F)c3)nc2c1 | – | > 80 | 9.00 | > 80 | – | 50 | 9.00 | ≤ 7.00 | – | – | – |
| Cc1ccnn2c(=O)n(CC(=O)N[C@@H](C)c3ccc(Cl)c(F)c3)nc12 | > 9.00 | > 80 | 9.00 | > 80 | 8.00 | > 80 | – | – | – | – | – |
| COc1ccn2c(=O)n(CC(=O)N[C@@H](C)c3ccc(OC(F)(F)F)cc3)nc2n1 | > 9.00 | 50 | 9.00 | – | – | – | – | > 9.00 | 25 | – | 25 |
| C[C@H](NC(=O)Cn1nc2cc(Cl)cnn2c1=O)c1ccc(Cl)c(F)c1 | > 9.00 | > 80 | 9.00 | > 80 | 9.00 | 50 | – | – | – | – | – |
| CC(NC(=O)Cn1nc2ccccn2c1=O)c1ncc(Cl)cc1F (stereo not drawn) | ≤ 7.00 | 50 | – | – | – | – | – | ≤ 7.00 | 25 | ≤ 7.00 | < 25 |
| COc1cnc2nn(CC(=O)N[C@@H](C)c3ccc(OC(F)(F)F)cc3)c(=O)n2c1 | – | > 80 | – | – | 9.00 | – | 9.00 | – | 25 | ≤ 7.00 | < 25 |

Second part, the molecule after the results:

| pEC50 [1] | Emax [2] [%] | pEC50 ([3]; cho-k1) | Emax ([4]; filed as agonist) [%] | pEC50 ([5]; cho-k1) | Emax ([6]; filed as agonist) [%] | pEC50 ([1]; cho-k1) | pEC50 [5] | Emax [6] [%] | pEC50 [3] | Emax [4] [%] | Compound |
| --- | --- | --- | --- | --- | --- | --- | --- | --- | --- | --- | --- |
| – | > 80 | 9.00 | 50 | – | 50 | 9.00 | > 9.00 | – | – | – | C[C@H](NC(=O)Cn1nc2ccc(F)cn2c1=O)c1ccc(C(F)(F)F)cc1 |
| > 9.00 | > 80 | – | 50 | – | 50 | – | > 9.00 | – | > 9.00 | – | C[C@H](NC(=O)Cn1nc2cc(Cl)ccn2c1=O)c1ccc(OC(F)(F)F)cc1 |
| > 9.00 | > 80 | 9.00 | 50 | 9.00 | > 80 | – | – | – | – | – | COc1cccc2nn(CC(=O)N[C@@H](C)c3ccc(OC(F)(F)F)cc3)c(=O)n12 |
| – | 50 | 9.00 | – | 8.00 | – | 9.00 | – | 25 | – | 25 | C[C@H](NC(=O)Cn1nc2ccc(Cl)nn2c1=O)c1ccc(OC(F)(F)F)cc1 |
| > 9.00 | > 80 | – | > 80 | 9.00 | > 80 | – | – | – | > 9.00 | – | C[C@H](NC(=O)Cn1nc2cc(Cl)ccn2c1=O)c1ccc(Cl)c(F)c1 |
| – | > 80 | 9.00 | 50 | 9.00 | > 80 | 9.00 | – | – | – | – | Cc1cc(Cl)ccc1[C@H](C)NC(=O)Cn1nc2ccccn2c1=O |
| > 9.00 | > 80 | 9.00 | 50 | 9.00 | 50 | – | – | – | – | – | C[C@H](NC(=O)Cn1nc2ccc(F)cn2c1=O)c1ccc(OC(F)(F)F)cc1 |
| > 9.00 | > 80 | 9.00 | > 80 | 9.00 | > 80 | – | – | – | – | – | C[C@H](NC(=O)Cn1nc2ccccn2c1=O)c1ccc(Cl)c(Cl)c1 |
| – | > 80 | 8.00 | > 80 | – | > 80 | 9.00 | ≤ 7.00 | – | – | – | Cc1ccc([C@H](C)NC(=O)Cn2nc3ncccn3c2=O)cc1Cl |
| > 9.00 | 50 | 9.00 | 50 | 9.00 | 50 | – | – | – | – | – | COc1cccc2nn(CC(=O)N[C@@H](C)c3ccc(Cl)cc3)c(=O)n12 |
| > 9.00 | > 80 | – | 50 | 9.00 | 50 | – | – | – | > 9.00 | – | Cc1ccc([C@H](C)NC(=O)Cn2nc3ccc(C)cn3c2=O)cc1 |
| – | > 80 | – | > 80 | 9.00 | > 80 | 9.00 | – | – | > 9.00 | – | C[C@H](NC(=O)Cn1nc2ccccn2c1=O)c1ccc(Cl)c(F)c1 |
| – | > 80 | 9.00 | > 80 | – | 50 | 9.00 | ≤ 7.00 | – | – | – | Cc1cc([C@H](C)NC(=O)Cn2nc3cccnn3c2=O)ccc1Cl |
| – | > 80 | 9.00 | 50 | 8.00 | 50 | 9.00 | – | – | – | – | Cc1ccc([C@H](C)NC(=O)Cn2nc3ccccn3c2=O)cc1 |
